Test system: human maximum recommended daily dose, FDA database
Test: DSSTox (FDAMDD) FDA Maximum (Recommended) Daily Dose Database
Conditions: stronger effect = lower value
Procedure, shortened: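 MRDD values come from clinical trials with daily oral dosing, usually for 3–12 months, for the average adult, in mg/day converted to mg/kg-bw/day assuming 60 kg. Antineoplastic mg/m2 doses are divided by 37. Activity score maps log10(1/MRDD mmol) onto 1–100.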

[1] = TherapeuticCategory: antibacterial
[2] = TherapeuticCategory: diagnostic aid
[3] = TherapeuticCategory: antineoplastic
[4] = TherapeuticCategory: anti inflammatory
[5] = TherapeuticCategory: glucocorticoid
[6] = TherapeuticCategory: sedative, hypnotic
[7] = TherapeuticCategory: cardiotonic
[8] = TherapeuticCategory: anticholinergic
[9] = TherapeuticCategory: anthelmintic
[10] = TherapeuticCategory: antidepressant
[11] = TherapeuticCategory: antipsychotic
[12] = TherapeuticCategory: antihypertensive

## CC(=O)OCC1=C(C(=O)O)N2C(=O)[C@@H](NC(=O)CC#N)[C@H]2SC1
[1]
  maximum recommended daily dose (mmol/kg-bw/day): 0.295

## CC(=O)Nc1c(I)c(C(=O)N[C@H]2C(O)O[C@H](CO)[C@@H](O)[C@@H]2O)c(I)c(N(C)C(C)=O)c1I (some centres not stated)
[2]
  maximum recommended daily dose (mmol/kg-bw/day): 0.132

## C=CCN1C[C@H](C(=O)N(CCCN(C)C)C(=O)NCC)C[C@@H]2c3cccc4[nH]cc(c34)C[C@H]21
TherapeuticCategory: antidyskinetic, prolactin inhibitor, antiparkinsonian, dopamine receptor antagonist
  maximum recommended daily dose (mmol/kg-bw/day): 4.43e-05

## CC1=C(/C=C/C(C)=C/C=C/C(C)=C\C(=O)O)C(C)(C)CCC1
TherapeuticCategory: keratolytic
  maximum recommended daily dose (mmol/kg-bw/day): 0.00666

## CCN(C)C(=O)Oc1cccc([C@H](C)N(C)C)c1
TherapeuticCategory: cholinesterase inhibitor
  maximum recommended daily dose (mmol/kg-bw/day): 0.000799

## Clc1ccc(COC(Cn2ccnc2)c2ccc(Cl)cc2Cl)c(Cl)c1 (configuration not stated)
TherapeuticCategory: topical antifungal
  maximum recommended daily dose (mmol/kg-bw/day): 0.144

## O=C(CCBr)N1CCN(C(=O)CCBr)CC1
[3]
  maximum recommended daily dose (mmol/kg-bw/day): 0.00843

## O=C(O)c1cccnc1Nc1cccc(C(F)(F)F)c1
[4]
  maximum recommended daily dose (mmol/kg-bw/day): 0.0443

## CC1(C)S[C@@H]2[C@H](NC(=O)[C@H](C(=O)O)c3ccsc3)C(=O)N2[C@H]1C(=O)O
[1]
  maximum recommended daily dose (mmol/kg-bw/day): 0.78

## C[C@H]1O[C@@H](n2cc(F)c(=O)[nH]c2=O)[C@H](O)[C@@H]1O
[3]
  maximum recommended daily dose (mmol/kg-bw/day): 0.0812

## N[C@@H](CCC(=O)O)C(=O)O
TherapeuticCategory: experimental antiepileptic
  maximum recommended daily dose (mmol/kg-bw/day): 0.68

## O=C(OCCN1CCCCC1)C(O)(c1ccccc1)c1ccccc1
TherapeuticCategory: anticholinergic, antispasmodic
  maximum recommended daily dose (mmol/kg-bw/day): 0.00392

## C#C[C@]1(O)CC[C@H]2[C@@H]3CCc4cc(O)ccc4[C@H]3CC[C@@]21C
TherapeuticCategory: estrogen
  maximum recommended daily dose (mmol/kg-bw/day): 1.69e-06

## CN(C)[C@@H]1C(=O)C(C(N)=O)=C(O)[C@@]2(O)C(=O)C3=C(O)c4c(O)ccc(Cl)c4[C@@](C)(O)[C@H]3C[C@@H]12
TherapeuticCategory: antibacterial, antiamebic
  maximum recommended daily dose (mmol/kg-bw/day): 0.0695

## CC(=O)OCC(=O)[C@@]1(OC(=O)C(C)C)[C@@H](C)C[C@H]2[C@@H]3CCC4=CC(=O)C=C[C@]4(C)[C@@]3(F)[C@@H](O)C[C@@]21C
[5]
  maximum recommended daily dose (mmol/kg-bw/day): 0.000297

## C[C@@H]1[C@H](O)[C@@H](C)/C=C/C=C/C=C/C=C/C=C/C=C/C=C/[C@H](O[C@@H]2O[C@H](C)[C@@H](O)[C@H](N)[C@@H]2O)C[C@@H]2O[C@](O)(C[C@@H](O)C[C@@H](O)[C@H](O)CC[C@@H](O)C[C@@H](O)CC(=O)O[C@H]1C)C[C@H](O)[C@H]2C(=O)O
TherapeuticCategory: antifungal
  maximum recommended daily dose (mmol/kg-bw/day): 0.00162

## Cc1cc(=O)n(-c2ccccc2)n1C (tested in a mixture with another compound)
[6]
  maximum recommended daily dose (mmol/kg-bw/day): 0.0626

## CCCCc1oc2ccccc2c1C(=O)c1cc(I)c(OCCN(CC)CC)c(I)c1
TherapeuticCategory: antiarrhythmic, antianginal
  maximum recommended daily dose (mmol/kg-bw/day): 0.0414

## Nc1ccc(C(=O)O)c(O)c1
[1]
  maximum recommended daily dose (mmol/kg-bw/day): 1.31

## CCCCCCCCCCC(=O)O[C@H]1CC[C@H]2[C@@H]3CCc4cc(O)ccc4[C@H]3CC[C@]12C
TherapeuticCategory: estrogen
  maximum recommended daily dose (mmol/kg-bw/day): 0.00113

## C[C@]12CC[C@H](O)CC1=CC[C@@H]1[C@@H]2CC[C@]2(C)C(=O)CC[C@@H]12
TherapeuticCategory: androgen
  maximum recommended daily dose (mmol/kg-bw/day): 0.0115

## CC(CCc1ccc(O)cc1)NCCc1ccc(O)c(O)c1 (configuration not stated)
[7]
  maximum recommended daily dose (mmol/kg-bw/day): 0.000133

## CS(=O)(=O)c1ccc([C@@H](O)[C@@H](CO)NC(=O)C(Cl)Cl)cc1
[1]
  maximum recommended daily dose (mmol/kg-bw/day): 0.14

## CC1(C)S[C@@H]2[C@H](N=CN3CCCCCC3)C(=O)N2[C@H]1C(=O)O
[1]
  maximum recommended daily dose (mmol/kg-bw/day): 0.0461

## CN1[C@@H]2CC[C@H]1CC(OC(=O)C(O)c1ccccc1)C2 (some centres not stated)
[8]
  maximum recommended daily dose (mmol/kg-bw/day): 0.0018

## CCN(CC)CCc1nc(-c2ccccc2)no1
[4]
  maximum recommended daily dose (mmol/kg-bw/day): 0.0136

## CN1CCCN=C1/C=C/c1cccs1
[9]
  maximum recommended daily dose (mmol/kg-bw/day): 0.0969

## CN(C)CCO
[10]
  maximum recommended daily dose (mmol/kg-bw/day): 0.168

## CCN(CC)CCOc1ccc(/C(=C(\Cl)c2ccccc2)c2ccccc2)cc1
TherapeuticCategory: gonad stimulating
  maximum recommended daily dose (mmol/kg-bw/day): 0.00411

## CC(=O)c1ccc2c(c1)N(CCCN1CCN(CCO)CC1)c1ccccc1S2
[11]
  maximum recommended daily dose (mmol/kg-bw/day): 0.0243

## C[C@H]1O[C@@H](O[C@H]2[C@@H](O)C[C@H](O[C@H]3[C@@H](O)C[C@H](O[C@H]4CC[C@@]5(C)[C@H](CC[C@@H]6[C@@H]5C[C@@H](O)[C@]5(C)[C@@H](C7=CC(=O)OC7)CC[C@]65O)C4)O[C@@H]3C)O[C@@H]2C)C[C@H](O)[C@@H]1O
[7]
  maximum recommended daily dose (mmol/kg-bw/day): 1.28e-08

## CC1(C)S[C@@H]2[C@H](NC(=O)[C@H](NC(=O)N3CCN(S(C)(=O)=O)C3=O)c3ccccc3)C(=O)N2[C@H]1C(=O)O
[1]
  maximum recommended daily dose (mmol/kg-bw/day): 0.495

## C=CCC1(CC(C)C)C(=O)NC(=O)NC1=O
[6]
  maximum recommended daily dose (mmol/kg-bw/day): 0.0223

## CCOc1ccccc1C(N)=O
TherapeuticCategory: analgesic
  maximum recommended daily dose (mmol/kg-bw/day): 0.404

## CC(=O)N[C@@H](CS)C(=O)O
TherapeuticCategory: mucolytic, corneal vulnerary
  maximum recommended daily dose (mmol/kg-bw/day): 0.0613

## C[N+](C)(C)CCOC(N)=O
TherapeuticCategory: cholinergic, miotic
  maximum recommended daily dose (mmol/kg-bw/day): 0.000365

## CC1(C)S[C@@H]2[C@H](N3C(=O)C(c4ccccc4)NC3(C)C)C(=O)N2[C@H]1C(=O)O (some centres not stated)
[1]
  maximum recommended daily dose (mmol/kg-bw/day): 0.0855

## CCCc1nn(C)c2c(=O)[nH]c(-c3cc(S(=O)(=O)N4CCN(C)CC4)ccc3OCC)nc12
TherapeuticCategory: erectile disfunction treatment
  maximum recommended daily dose (mmol/kg-bw/day): 0.00352

## CC(=O)Oc1cc(C(C)C)c(OCCN(C)C)cc1C
TherapeuticCategory: vasodilator
  maximum recommended daily dose (mmol/kg-bw/day): 0.0191

## COc1c(C)c2c(c(O)c1C/C=C(\C)CCC(=O)OCCN1CCOCC1)C(=O)OC2
[3]
  maximum recommended daily dose (mmol/kg-bw/day): 0.277

## CC[C@H]1OC(=O)[C@H](C)[C@@H](O[C@H]2C[C@@](C)(OC)[C@@H](O)[C@H](C)O2)[C@H](C)[C@@H](O[C@@H]2O[C@H](C)C[C@H](N(C)C)[C@H]2O)[C@](C)(O)C[C@@H](C)C(=O)[C@H](C)[C@@H](O)[C@]1(C)O
[1]
  maximum recommended daily dose (mmol/kg-bw/day): 0.0909

## O=C(c1ccc(F)cc1)C1CCN(CCn2c(=O)[nH]c3ccccc3c2=O)CC1
[12]
  maximum recommended daily dose (mmol/kg-bw/day): 0.00336

## CCc1nc(N)nc(N)c1-c1ccc(Cl)cc1
TherapeuticCategory: antimalarial
  maximum recommended daily dose (mmol/kg-bw/day): 0.00503

## CNC(C)CC1CCCCC1 (configuration not stated)
TherapeuticCategory: andrenergic, nasal decongestant
  maximum recommended daily dose (mmol/kg-bw/day): 0.0161

## O=C(O)C1CSCN1 (configuration not stated)
TherapeuticCategory: choleretic
  maximum recommended daily dose (mmol/kg-bw/day): 0.0751

## CO[C@H](C(=O)[C@@H](O)[C@@H](C)O)C1Cc2cc3cc(O[C@H]4C[C@@H](O[C@H]5C[C@@H](O)[C@H](O)[C@@H](C)O5)[C@@H](O)[C@@H](C)O4)c(C)c(O)c3c(O)c2C(=O)[C@H]1O[C@H]1C[C@@H](O[C@H]2C[C@@H](O[C@H]3C[C@](C)(O)[C@H](O)[C@@H](C)O3)[C@H](O)[C@@H](C)O2)[C@H](O)[C@@H](C)O1 (some centres not stated)
[3]
  maximum recommended daily dose (mmol/kg-bw/day): 2.76e-05

## CC(CN1c2ccccc2Sc2ccc(S(=O)(=O)N(C)C)cc21)N(C)C (configuration not stated)
TherapeuticCategory: antimigraine
  maximum recommended daily dose (mmol/kg-bw/day): 0.0034

## CC[C@H](C)[C@H]1O[C@]2(CC[C@@H]1C)C[C@@H]1C[C@@H](C/C=C(\C)[C@@H](O[C@H]3C[C@H](OC)[C@@H](O[C@H]4C[C@H](OC)[C@@H](O)[C@H](C)O4)[C@H](C)O3)[C@@H](C)/C=C/C=C3\CO[C@@H]4[C@H](O)C(C)=C[C@@H](C(=O)O1)[C@]34O)O2
[9]
  maximum recommended daily dose (mmol/kg-bw/day): 0.000171

## Fc1ccc([C@@H]2CCNC[C@H]2COc2ccc3c(c2)OCO3)cc1
[10]
  maximum recommended daily dose (mmol/kg-bw/day): 0.00253

## CC(C)(CO)C(O)C(=O)NCCCO (configuration not stated)
TherapeuticCategory: cholinergic
  maximum recommended daily dose (mmol/kg-bw/day): 0.0406

## CNS(=O)(=O)CCc1ccc2[nH]cc(C3CCN(C)CC3)c2c1
TherapeuticCategory: antimigraine, vasoconstrictor
  maximum recommended daily dose (mmol/kg-bw/day): 0.000248

## COc1cc(C(=O)NC2CCCNC2)cc(OC)c1OC (configuration not stated)
TherapeuticCategory: antiulcerative
  maximum recommended daily dose (mmol/kg-bw/day): 0.017

## Nc1nc(N)c2nc(CNc3ccc(C(=O)NC(CCC(=O)O)C(=O)O)cc3)cnc2n1 (configuration not stated)
TherapeuticCategory: rodenticide
  maximum recommended daily dose (mmol/kg-bw/day): 1.89e-05

## Cn1cnc([N+](=O)[O-])c1Sc1ncnc2nc[nH]c12
TherapeuticCategory: immunosuppressant, antirheumatic
  maximum recommended daily dose (mmol/kg-bw/day): 0.018

## COC(=O)[C@H]1[C@H]2C[C@@H]3c4[nH]c5cc(OC)ccc5c4CCN3C[C@H]2C[C@@H](OC(=O)c2cc(OC)c(OC)c(OC)c2)[C@@H]1OC
[12]
  maximum recommended daily dose (mmol/kg-bw/day): 1.64e-05

## C[C@@H]1O[C@@]2(CS1)CN1CCC2CC1
TherapeuticCategory: selective agonist (tear and salivary production)
  maximum recommended daily dose (mmol/kg-bw/day): 0.00613

## C#C[C@]1(OC(C)=O)CC[C@H]2[C@@H]3CCC4=C[C@@H](OC(C)=O)CC[C@@H]4[C@H]3CC[C@@]21C
TherapeuticCategory: progestogen
  maximum recommended daily dose (mmol/kg-bw/day): 4.34e-05

## CCCC(=O)Nc1c(I)cc(I)c(CC(CC)C(=O)O)c1I (configuration not stated)
[2]
  maximum recommended daily dose (mmol/kg-bw/day): 0.0754

## CC(C)(C)CC(=O)OCC(=O)[C@@]1(O)CC[C@H]2[C@@H]3CCC4=CC(=O)C=C[C@]4(C)[C@H]3[C@@H](O)C[C@@]21C
[5]
  maximum recommended daily dose (mmol/kg-bw/day): 0.00726

## CCOC(=O)C1=C(C)NC(C)=C(C(=O)OC)C1c1cccc(Cl)c1Cl (configuration not stated)
TherapeuticCategory: antihypertensive, antianginal
  maximum recommended daily dose (mmol/kg-bw/day): 0.000867

## Cn1nnnc1SCC1=C(C(=O)O)N2C(=O)[C@@H](NC(=O)[C@H](O)c3ccccc3)[C@H]2SC1
[1]
  maximum recommended daily dose (mmol/kg-bw/day): 0.216

## CO/N=C(\C(=O)N[C@@H]1C(=O)N2C(C(=O)O)=C(CSc3nc(=O)c(=O)[nH]n3C)CS[C@H]12)c1csc(N)n1
[1]
  maximum recommended daily dose (mmol/kg-bw/day): 0.12

## CCN(CC)CCOC(=O)C1(C2CCCCC2)CCCCC1
[8]
  maximum recommended daily dose (mmol/kg-bw/day): 0.0043

## Nc1ccn([C@H]2CS[C@@H](CO)O2)c(=O)n1
TherapeuticCategory: antiviral
  maximum recommended daily dose (mmol/kg-bw/day): 0.0218

## C#C[C@]1(O)CC[C@H]2[C@@H]3CCc4cc(OC)ccc4[C@H]3CC[C@@]21C
TherapeuticCategory: estrogen
  maximum recommended daily dose (mmol/kg-bw/day): 2.67e-06

## O=C(CCCN1CCC(n2c(=S)[nH]c3ccccc32)CC1)c1ccc(F)cc1
[11]
  maximum recommended daily dose (mmol/kg-bw/day): 0.000503

## Nc1ccn([C@H]2CC[C@@H](CO)O2)c(=O)n1
TherapeuticCategory: antiviral
  maximum recommended daily dose (mmol/kg-bw/day): 0.000178

Source: PubChem BioAssay AID1195 (EPA DSSTox, 2008)
